Reference: ChEMBL document CHEMBL5512691, “Synthetically Feasible De Novo Molecular Design of Leads Based on a Reinforcement Learning Model: AI-Assisted Discovery of an Anti-IBD Lead Targeting CXCR4” (J Med Chem, 2024)
The source made the active and inactive calls. The rule behind the calls is not given here.

What was measured:
Mus musculus [1] = assay: Anti-inflammatory activity in DSS induced C57BL/6 mouse model of colitis assessed as reduction in DAI score at 25 mg/kg, IG administered twice daily for 2 weeks (reference value: 3); assay type: functional
Mus musculus [2] = assay: Anti-inflammatory activity in DSS induced C57BL/6 mouse model of colitis assessed as decrease in IL-6 expression at 25 mg/kg, IG administered twice daily for 2 weeks by bioluminescence microscopy; assay type: functional, organism-based
Mus musculus [3] = assay: Anti-inflammatory activity in DSS induced C57BL/6 mouse model of colitis assessed as alleviation in body weight loss at 25 mg/kg, IG administered twice daily for 2 weeks; assay type: functional, organism-based
Mus musculus [4] = assay: Anti-inflammatory activity in DSS induced C57BL/6 mouse model of colitis assessed as decrease in IL-1beta expression at 25 mg/kg, IG administered twice daily for 2 weeks by bioluminescence microscopy; assay type: functional, organism-based
Mus musculus [5] = assay: Anti-inflammatory activity in DSS induced C57BL/6 mouse model of colitis assessed as increase in colon length at 25 mg/kg, IG administered twice daily for 2 weeks; assay type: functional, organism-based
RAW264.7 [6] = assay: Inhibition of CXCL-12 induced chemotaxis in mouse RAW264.7 cells incubated for 22 hrs by transwell assay; assay type: functional
Mus musculus [7] = assay: Anti-inflammatory activity in DSS induced C57BL/6 mouse model of colitis assessed as decrease in number of bleeding area at 25 mg/kg, IG administered twice daily for 2 weeks; assay type: functional, organism-based
Mus musculus [8] = assay: Anti-inflammatory activity in DSS induced C57BL/6 mouse model of colitis assessed as decrease in colon MPO level at 25 mg/kg, IG administered twice daily for 2 weeks by microplate reader assay; assay type: functional, organism-based
[9] = biological target: T1, C-X-C chemokine receptor type 4 (Homo sapiens, UniProt P61073); assay: (§1) Competitive binding affinity to CXCR4 (unknown origin) assessed as inhibition of CXCR4 to TN14003 interaction preincubated for 10 mins followed by compound washout and subsequent TN14003 addition for 30 mins prior to incubation under dark condition for 30 mins by DAPI staining based laser scanning confocal microscopic analysis
Mus musculus [10] = assay: Anti-inflammatory activity in DSS induced C57BL/6 mouse model of colitis assessed as alleviation in colon edema at 25 mg/kg, IG administered twice daily for 2 weeks; assay type: functional, organism-based
[11] = biological target: T1, C-X-C chemokine receptor type 4; assay: as §1, with “interaction at 10 nM” for “interaction”, “analysis relative to control” for “analysis”; design: scale not given: the % may be the effect or the level left
Mus musculus [12] = assay: Anti-inflammatory activity in DSS induced C57BL/6 mouse model of colitis assessed as decrease in number of bleeding points at 25 mg/kg, IG administered twice daily for 2 weeks; assay type: functional, organism-based
RAW264.7 [13] = assay: Inhibition of CXCL-12 induced chemotaxis in mouse RAW264.7 cells at 10 nM incubated for 22 hrs by crystal violet staining based transwell assay; assay type: functional, cell-based
Mus musculus [14] = assay: Anti-inflammatory activity in DSS induced C57BL/6 mouse model of colitis assessed as decrease in TNF-alpha expression at 25 mg/kg, IG administered twice daily for 2 weeks by bioluminescence microscopy; assay type: functional, organism-based
Mus musculus [15] = assay: Anti-inflammatory activity in DSS induced C57BL/6 mouse model of colitis assessed as inhibition rate at 25 mg/kg, IG administered twice daily for 2 weeks; assay type: functional; design: scale not given: the % may be the effect or the level left
[16] = Half-life in Sprague-Dawley rat at 2 mg/kg, iv measured upto 12 hrs by LC-MS/MS analysis; assay type: ADME, organism-based; settings: in vivo
[17] = Cmax in Sprague-Dawley rat at 20 mg/kg, IG measured upto 12 hrs by LC-MS/MS analysis; assay type: ADME, organism-based; settings: in vivo, po
[18] = Half-life in Sprague-Dawley rat at 20 mg/kg, IG measured upto 12 hrs by LC-MS/MS analysis; assay type: ADME, organism-based; settings: in vivo, po
[19] = Stability in human liver microsomes assessed as half life measured upto 45 mins in presence of NADPH by LC-MS analysis; assay type: ADME, Microsome
[20] = Tmax in Sprague-Dawley rat at 2 mg/kg, iv measured upto 12 hrs by LC-MS/MS analysis; assay type: ADME, organism-based; settings: in vivo
[21] = Volume of distribution in Sprague-Dawley rat at 2 mg/kg, IV measured upto 12 hrs by LC-MS/MS analysis; assay type: ADME, organism-based; settings: in vivo
[22] = AUC(0 to infinity) in Sprague-Dawley rat at 2 mg/kg, iv measured upto 12 hrs by LC-MS/MS analysis; assay type: ADME, organism-based; settings: in vivo
Mus musculus [23] = assay: Anti-inflammatory activity in DSS induced C57BL/6 mouse model of colitis assessed as decrease in inflammatory track infiltration at 25 mg/kg, IG administered twice daily for 2 weeks by bioluminescence microscopy; assay type: functional, organism-based
Mus musculus [24] = assay: Anti-inflammatory activity in DSS induced C57BL/6 mouse model of colitis assessed as decrease in intestinal track inflammation at 25 mg/kg, IG administered twice daily for 2 weeks by bioluminescence microscopy; assay type: functional, organism-based
[25] = Clearance in Sprague-Dawley rat at 20 mg/kg, IG measured upto 12 hrs by LC-MS/MS analysis; assay type: ADME, organism-based; settings: in vivo, po
[26] = Clearance in Sprague-Dawley rat at 2 mg/kg, iv measured upto 12 hrs by LC-MS/MS analysis; assay type: ADME, organism-based; settings: in vivo
[27] = Stability in human liver microsomes assessed as compound remaining measured upto 45 mins in presence of NADPH by LC-MS analysis; assay type: ADME, Microsome; settings: read-out: Stability
[28] = AUC(0 to t) in Sprague-Dawley rat at 20 mg/kg, IG measured upto 12 hrs by LC-MS/MS analysis; assay type: ADME, organism-based; settings: in vivo, po
[29] = Stability in human plasma assessed as half life measured upto 120 mins by LC-MS analysis; assay type: ADME, cell-free
Mus musculus [30] = assay: Anti-inflammatory activity in DSS induced C57BL/6 mouse model of colitis assessed as decrease in thickness of colon mucosa at 25 mg/kg, IG administered twice daily for 2 weeks by bioluminescence microscopy; assay type: functional, organism-based
[31] = MRT in Sprague-Dawley rat at 2 mg/kg, iv measured upto 12 hrs by LC-MS/MS analysis; assay type: ADME, organism-based; settings: in vivo
[32] = Volume of distribution in Sprague-Dawley rat at 20 mg/kg, IG measured upto 12 hrs by LC-MS/MS analysis; assay type: ADME, organism-based; settings: in vivo, po
[33] = AUC(0 to infinity) in Sprague-Dawley rat at 20 mg/kg, IG measured upto 12 hrs by LC-MS/MS analysis; assay type: ADME, organism-based; settings: in vivo, po
[34] = Stability in human plasma assessed as compound remaining measured upto 120 mins by LC-MS analysis; assay type: ADME, cell-free; settings: read-out: Stability
[35] = Cmax in Sprague-Dawley rat at 2 mg/kg, iv measured upto 12 hrs by LC-MS/MS analysis; assay type: ADME, organism-based; settings: in vivo
Mus musculus [36] = assay: Anti-inflammatory activity in DSS induced C57BL/6 mouse model of colitis assessed as restoration of integrity of glands at 25 mg/kg, IG administered twice daily for 2 weeks by bioluminescence microscopy; assay type: functional, organism-based
[37] = AUC(0 to t) in Sprague-Dawley rat at 2 mg/kg, iv measured upto 12 hrs by LC-MS/MS analysis; assay type: ADME, organism-based; settings: in vivo
[38] = MRT in Sprague-Dawley rat at 20 mg/kg, IG measured upto 12 hrs by LC-MS/MS analysis; assay type: ADME, organism-based; settings: in vivo, po
[39] = Tmax in Sprague-Dawley rat at 20 mg/kg, IG measured upto 12 hrs by LC-MS/MS analysis; assay type: ADME, organism-based; settings: in vivo, po
Mus musculus [40] = assay: Anti-inflammatory activity in DSS induced C57BL/6 mouse model of colitis assessed as restoration of structural integrity of epithelium at 25 mg/kg, IG administered twice daily for 2 weeks by bioluminescence microscopy; assay type: functional, organism-based
[41] = Bioavailability in Sprague-Dawley rat at 20 mg/kg, IG measured upto 12 hrs by LC-MS/MS analysis; assay type: ADME, organism-based; settings: in vivo, po
Mus musculus [42] = assay: Anti-inflammatory activity in DSS induced C57BL/6 mouse model of colitis assessed as restoration of number of goblet cells at 25 mg/kg, IG administered twice daily for 2 weeks by bioluminescence microscopy; assay type: functional, organism-based
Mus musculus [43] = assay: Anti-inflammatory activity in DSS induced C57BL/6 mouse model of colitis assessed as decrease in inflammatory cell infiltration at 25 mg/kg, IG administered twice daily for 2 weeks by bioluminescence microscopy; assay type: functional, organism-based

T1 sequence (P61073 whole entry): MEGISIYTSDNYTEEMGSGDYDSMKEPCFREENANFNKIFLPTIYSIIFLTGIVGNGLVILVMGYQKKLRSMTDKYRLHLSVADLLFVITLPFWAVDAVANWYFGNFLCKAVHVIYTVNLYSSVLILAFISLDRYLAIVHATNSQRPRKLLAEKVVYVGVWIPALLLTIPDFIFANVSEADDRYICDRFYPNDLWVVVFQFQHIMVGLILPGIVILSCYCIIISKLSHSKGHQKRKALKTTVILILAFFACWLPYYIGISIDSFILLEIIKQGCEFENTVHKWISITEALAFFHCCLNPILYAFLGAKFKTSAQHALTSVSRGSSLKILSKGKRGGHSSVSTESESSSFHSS

O=C(NC1CCN(Cc2cccnc2)CC1)c1cnc2ccccc2c1
Activity (Mus musculus [1]): 2
Activity (Mus musculus [2]): Active
Activity (Mus musculus [3]): Active
Activity (Mus musculus [4]): Active
Activity (Mus musculus [5]): Active
inhibition (INH) (RAW264.7 [6]): 75.63%
Activity (Mus musculus [7]): Active
Activity (Mus musculus [8]): Active
IC50 [9]: 5.7 nM
Activity (Mus musculus [10]): Active
Activity [11]: 67.1%
Activity (Mus musculus [12]): Active
inhibition (RAW264.7 [13]): Active
Activity (Mus musculus [14]): Active
Activity (Mus musculus [15]): 33.3%

O=C(c1cnc2ccccc2c1)N1CCC(N2CCOCC2)CC1
Activity [11]: 53.6%

COc1ccc(C(=O)N[C@@H]2CCc3[nH]c4ccccc4c3C2)cc1
Activity [11]: 38.3%

O=S(=O)(NCc1ccc(-c2ccccc2)cc1)c1cc(F)c(F)cc1F
Activity [11]: 54.9%

Fc1ccc(F)c(NCCN2CCN(c3nccc4ccccc34)CC2)c1
Activity [11]: 58.6%

Cc1ccc(CN2CCN(c3nc(N)c4sccc4n3)CC2)cc1
Activity [11]: 59.1%

Cc1cc(O)cc(C(=O)N2CCN(c3ccc(F)cc3)CC2)c1
Activity [11]: 64.3%

O=C(NO)c1ccc(NC(=O)c2ccccc2C(F)(F)F)cc1
Activity [11]: 55.4%

O=C(NCc1ccccc1-n1cccn1)c1cnc2ccccc2n1
Activity [11]: 11.1%

c1cc(CN2CCCNCCNCCCNCC2)ccc1CN1CCCNCCNCCCNCC1 [PLERIXAFOR]
Activity (Mus musculus [1]): 1.8
Activity (Mus musculus [2]): Active
Activity (Mus musculus [4]): Active
Activity [11]: 62.9%
Activity (Mus musculus [14]): Active
Activity (Mus musculus [15]): 40%

O=C(c1ccco1)N1CCN(C2CCN(c3ccccc3)CC2)CC1
Activity (Mus musculus [1]): 1.4
half-life [16]: 0.81 h
Cmax [17]: 1440 ng/mL
half-life [18]: 1.71 h
half-life [19]: 1.12 h
Tmax [20]: 4.8 min
Activity (Mus musculus [2]): Active
Activity (Mus musculus [3]): Active
Vd [21]: 6.04 L/kg
Activity (Mus musculus [4]): Active
AUC(0-inf) [22]: 340 ng·h/mL
Activity (Mus musculus [23]): Active
Activity (Mus musculus [5]): Active
Activity (Mus musculus [24]): Active
CL/F [25]: 109 mL/min/kg
clearance [26]: 99.4 mL/min/kg
remaining at 0.75 h [27]: 62%
AUC(0-t) at 12 h [28]: 3010 ng·h/mL
inhibition (INH) (RAW264.7 [6]): 79.19%
half-life [29]: > 2 h
Activity (Mus musculus [30]): Active
Activity (Mus musculus [7]): Active
MRT [31]: 1.03 h
Activity (Mus musculus [8]): Active
Vd [32]: 16.16166 L/kg
AUC(0-inf) [33]: 3070 ng·h/mL
remaining at 2 h [34]: 87%
Cmax [35]: 351 ng/mL
IC50 [9]: 3.2 nM
Activity (Mus musculus [10]): Active
Activity (Mus musculus [36]): Active
Activity [11]: 78.9%
Activity (Mus musculus [12]): Active
AUC(0-t) at 12 h [37]: 330 ng·h/mL
MRT [38]: 2.62 h
inhibition (RAW264.7 [13]): Active
Tmax [39]: 0.25 h
Activity (Mus musculus [40]): Active
bioavailability [41]: 91.1%
Activity (Mus musculus [14]): Active
Activity (Mus musculus [42]): Active
Activity (Mus musculus [43]): Active
Activity (Mus musculus [15]): 53.3%

O=C(c1cc2ccccc2[nH]1)N1CCN(c2ccc(Cl)cn2)CC1
Activity [11]: 40.2%

Cc1ccc(C)c(CC(=O)N2CCN(c3ccccc3)CC2)c1
Activity [11]: 59.5%

Cc1cccc(NC(=O)N2CCN(c3nccc4ccccc34)CC2)c1
Activity [11]: 33.7%

CC(=O)N1CCC(N(Cc2cccc(C)c2O)C(=O)c2cccc3ccccc23)CC1
Activity [11]: 59.2%

O=C(c1cnc2ccccc2c1)N1CCN(c2ccccc2F)CC1
Activity [11]: 52.2%

O=C(NC1CCN(Cc2ccccc2)CC1)c1ccc(Cl)cc1Cl
Activity [11]: 61.2%

O=C(c1cnc2ccccc2c1)N1CCC(N2CCCC2)CC1
Activity [11]: 64.5%

Cc1c(C)c2ccc(OCc3ccc(F)c(F)c3)cc2oc1=O
Activity [11]: 51.9%

O=S(=O)(c1ccc(F)c(F)c1)N1CCN(c2ccc3ccccc3n2)CC1
Activity [11]: 64.8%

CC1CN(C(=O)c2ccccc2C(=O)Nc2ccccc2)CCN1C(=O)c1ccc(F)c(F)c1 (configuration not stated)
Activity [11]: 62.7%
